According to ChEMBL document CHEMBL4507276 (2021):

Columns and labels:
[1] = target: 5-hydroxytryptamine receptor 7 (Homo sapiens) (UniProt P34969); experiment: 5HT7/H Cerep selectivity data (BI); details: Compound concentration 20.0 uM
[2] = target: Adenosine receptor A2b (Homo sapiens) (UniProt P29275); experiment: A2B/H Cerep selectivity data (BI); details: Compound concentration 20.0 uM
[3] = target: Cyclin-dependent kinase 2/cyclin A (Homo sapiens) (UniProt P24941+P20248+P78396); experiment: CDK2(CYCA)_CE Cerep selectivity data (BI); type: protein-complex assay; details: Compound concentration 20.0 uM
[4] = target: Nitric oxide synthase, inducible (Mus musculus) (UniProt P29477); experiment: INDUC_NOS Cerep selectivity data (BI); details: Compound concentration 20.0 uM
[5] = target: Cysteinyl leukotriene receptor 1 (Homo sapiens) (UniProt Q9Y271); experiment: LTD4/H Cerep selectivity data (BI); details: Compound concentration 20.0 uM
Cysteinyl leukotriene receptor 1 (Homo sapiens), sequence (Q9Y271 whole entry): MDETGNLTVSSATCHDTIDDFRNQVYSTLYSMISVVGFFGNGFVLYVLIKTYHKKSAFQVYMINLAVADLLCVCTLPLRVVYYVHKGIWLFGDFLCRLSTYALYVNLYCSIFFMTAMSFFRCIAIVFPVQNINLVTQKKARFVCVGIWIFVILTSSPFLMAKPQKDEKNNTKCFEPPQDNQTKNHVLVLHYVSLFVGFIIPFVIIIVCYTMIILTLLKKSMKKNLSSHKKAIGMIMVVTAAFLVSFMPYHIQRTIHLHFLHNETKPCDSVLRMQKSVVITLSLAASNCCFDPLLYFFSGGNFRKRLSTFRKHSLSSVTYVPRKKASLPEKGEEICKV

[6] = target: Melanocortin receptor 4 (Homo sapiens) (UniProt P32245); experiment: MC4/HU Cerep selectivity data (BI); details: Compound concentration 20.0 uM
[7] = target: Melatonin receptor type 1A (Homo sapiens) (UniProt P48039); experiment: MT1 (ML1A) Cerep selectivity data (BI); details: Compound concentration 20.0 uM
[8] = target: Neprilysin (Homo sapiens) (UniProt P08473); experiment: N_ENDOPEP Cerep selectivity data (BI); details: Compound concentration 20.0 uM
[9] = target: Vasoactive intestinal polypeptide receptor 1 (Homo sapiens) (UniProt P32241); experiment: VIP1/VPAC1/H Cerep selectivity data (BI); details: Compound concentration 20.0 uM
[10] = target: Beta-2 adrenergic receptor (Homo sapiens) (UniProt P07550); experiment: BETA2/HU Eurofins-Panlabs selectivity data (BI); details: Compound concentration 10.0 uM
[11] = target: Sodium-dependent dopamine transporter (Homo sapiens, UniProt Q01959); experiment: DATRANS/H Eurofins-Panlabs selectivity data (BI); details: Compound concentration 10.0 uM
[12] = target: Sodium- and chloride-dependent GABA transporter 1 (Rattus norvegicus) (UniProt P23978); experiment: GABATRANS/RA Eurofins-Panlabs selectivity data (BI); details: Compound concentration 10.0 uM
[13] = target: Histamine H2 receptor (Homo sapiens) (UniProt P25021); experiment: H2/H Eurofins-Panlabs selectivity data (BI); details: Compound concentration 10.0 uM
Histamine H2 receptor (Homo sapiens), sequence (P25021 whole entry): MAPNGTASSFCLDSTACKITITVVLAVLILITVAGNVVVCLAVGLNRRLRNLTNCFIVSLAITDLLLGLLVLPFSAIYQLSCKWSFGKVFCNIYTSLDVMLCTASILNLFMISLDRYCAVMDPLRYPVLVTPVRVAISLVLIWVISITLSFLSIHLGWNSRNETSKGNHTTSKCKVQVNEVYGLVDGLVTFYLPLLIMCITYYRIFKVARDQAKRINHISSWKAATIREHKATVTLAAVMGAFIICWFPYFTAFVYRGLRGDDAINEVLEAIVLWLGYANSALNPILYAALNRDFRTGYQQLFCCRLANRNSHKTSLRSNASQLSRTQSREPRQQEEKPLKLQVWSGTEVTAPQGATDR

[14] = target: Acetylcholine receptor subunit alpha (Homo sapiens) (UniProt P02708); experiment: NACH/H Eurofins-Panlabs selectivity data (BI); details: Compound concentration 10.0 uM
[15] = target: Sodium-dependent noradrenaline transporter (Homo sapiens) (UniProt P23975); experiment: NETRANS/H Eurofins-Panlabs selectivity data (BI); details: Compound concentration 10.0 uM
[16] = target: Glutamate NMDA receptor (Rattus norvegicus) (UniProt P35439+Q00959+Q00960+Q00961+Q62645+Q8VHN2+Q9R1M7); experiment: NMDAAGSI/RA Eurofins-Panlabs selectivity data (BI); type: protein-complex assay; details: filed as agonist, Compound concentration 10.0 uM
[17] = test system: Tyrosine-protein kinase ABL1 (Homo sapiens), P00519 [E255K]; experiment: ABL1 E255K Invitrogen selectivity data (BI); details: Compound concentration 3.0 uM
Tyrosine-protein kinase ABL1 (Homo sapiens), P00519 [E255K], sequence (P00519 whole entry E255K, canonical isoform): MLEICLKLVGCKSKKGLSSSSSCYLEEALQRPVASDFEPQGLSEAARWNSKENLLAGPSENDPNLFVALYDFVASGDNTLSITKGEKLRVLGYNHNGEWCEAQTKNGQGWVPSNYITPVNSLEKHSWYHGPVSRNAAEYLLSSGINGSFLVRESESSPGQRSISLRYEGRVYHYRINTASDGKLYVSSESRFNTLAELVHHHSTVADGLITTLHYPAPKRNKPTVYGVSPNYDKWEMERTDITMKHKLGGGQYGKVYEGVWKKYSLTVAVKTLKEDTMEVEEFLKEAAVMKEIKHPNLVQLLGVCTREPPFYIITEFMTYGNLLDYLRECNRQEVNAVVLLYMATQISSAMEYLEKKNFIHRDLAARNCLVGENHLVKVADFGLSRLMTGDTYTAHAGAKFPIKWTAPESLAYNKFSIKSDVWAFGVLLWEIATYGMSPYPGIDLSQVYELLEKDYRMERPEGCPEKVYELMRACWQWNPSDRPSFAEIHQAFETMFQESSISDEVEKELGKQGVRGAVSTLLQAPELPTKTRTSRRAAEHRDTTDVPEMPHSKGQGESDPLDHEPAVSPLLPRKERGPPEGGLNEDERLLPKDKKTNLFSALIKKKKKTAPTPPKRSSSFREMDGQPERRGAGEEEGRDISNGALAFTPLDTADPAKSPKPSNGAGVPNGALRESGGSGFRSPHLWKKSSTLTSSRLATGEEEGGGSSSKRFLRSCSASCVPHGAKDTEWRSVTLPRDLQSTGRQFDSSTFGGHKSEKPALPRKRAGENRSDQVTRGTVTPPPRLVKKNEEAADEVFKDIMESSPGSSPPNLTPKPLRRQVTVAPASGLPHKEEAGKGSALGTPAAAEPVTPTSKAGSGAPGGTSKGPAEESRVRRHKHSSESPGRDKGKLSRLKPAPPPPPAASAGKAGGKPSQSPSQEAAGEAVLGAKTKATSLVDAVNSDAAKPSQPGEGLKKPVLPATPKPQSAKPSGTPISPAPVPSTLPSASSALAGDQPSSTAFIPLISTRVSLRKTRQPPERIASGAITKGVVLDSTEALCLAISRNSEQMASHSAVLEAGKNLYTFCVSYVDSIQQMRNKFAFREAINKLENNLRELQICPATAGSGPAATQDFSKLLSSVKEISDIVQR

[18] = target: Casein kinase I isoform gamma-3 (Homo sapiens) (UniProt Q9Y6M4); experiment: CSNK1G3 Invitrogen selectivity data (BI); details: Compound concentration 3.0 uM
[19] = target: T1, Ephrin type-B receptor 1 (Homo sapiens) (UniProt P54762); experiment: EPHB1 Invitrogen selectivity data (BI); details: Compound concentration 3.0 uM
T1 sequence (whole entry): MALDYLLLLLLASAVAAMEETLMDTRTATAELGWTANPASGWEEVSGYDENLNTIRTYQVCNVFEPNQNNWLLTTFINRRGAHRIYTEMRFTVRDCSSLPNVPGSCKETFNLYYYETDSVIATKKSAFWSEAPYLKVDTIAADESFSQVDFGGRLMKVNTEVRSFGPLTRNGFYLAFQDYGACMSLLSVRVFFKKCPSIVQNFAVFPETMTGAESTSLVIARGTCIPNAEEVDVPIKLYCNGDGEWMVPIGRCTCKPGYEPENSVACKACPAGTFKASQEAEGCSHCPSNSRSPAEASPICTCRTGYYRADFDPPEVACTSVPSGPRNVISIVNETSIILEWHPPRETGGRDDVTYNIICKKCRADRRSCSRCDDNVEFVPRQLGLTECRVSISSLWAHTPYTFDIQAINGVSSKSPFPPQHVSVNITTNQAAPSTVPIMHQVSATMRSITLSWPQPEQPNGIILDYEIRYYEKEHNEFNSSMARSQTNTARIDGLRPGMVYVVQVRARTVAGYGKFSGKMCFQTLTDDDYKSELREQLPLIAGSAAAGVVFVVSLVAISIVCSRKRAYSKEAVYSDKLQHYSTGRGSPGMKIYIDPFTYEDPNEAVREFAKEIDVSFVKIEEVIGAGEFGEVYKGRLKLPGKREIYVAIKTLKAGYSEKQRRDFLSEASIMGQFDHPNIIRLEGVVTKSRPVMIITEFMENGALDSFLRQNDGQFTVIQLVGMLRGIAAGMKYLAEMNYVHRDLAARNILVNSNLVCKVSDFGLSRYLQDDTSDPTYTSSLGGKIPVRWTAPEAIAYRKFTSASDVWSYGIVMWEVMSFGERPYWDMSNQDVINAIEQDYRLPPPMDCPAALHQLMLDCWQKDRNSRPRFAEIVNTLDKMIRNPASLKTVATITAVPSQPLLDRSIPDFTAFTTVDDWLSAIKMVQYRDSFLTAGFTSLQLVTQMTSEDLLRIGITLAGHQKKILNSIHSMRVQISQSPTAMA

[20] = target: G protein-coupled receptor kinase 6 (Homo sapiens) (UniProt P43250); experiment: GRK6 Invitrogen selectivity data (BI); details: Compound concentration 3.0 uM
[21] = target: Serine/threonine-protein kinase Nek4 (Homo sapiens) (UniProt P51957); experiment: NEK4 Invitrogen selectivity data (BI); details: Compound concentration 3.0 uM
[22] = target: Protein-tyrosine kinase 6 (Homo sapiens) (UniProt Q13882); experiment: PTK6 Invitrogen selectivity data (BI); details: Compound concentration 3.0 uM
[23] = target: Receptor-interacting serine/threonine-protein kinase 2 (Homo sapiens) (UniProt O43353); experiment: RIPK2 Invitrogen selectivity data (BI); details: Compound concentration 3.0 uM
Receptor-interacting serine/threonine-protein kinase 2 (Homo sapiens), sequence (O43353 whole entry): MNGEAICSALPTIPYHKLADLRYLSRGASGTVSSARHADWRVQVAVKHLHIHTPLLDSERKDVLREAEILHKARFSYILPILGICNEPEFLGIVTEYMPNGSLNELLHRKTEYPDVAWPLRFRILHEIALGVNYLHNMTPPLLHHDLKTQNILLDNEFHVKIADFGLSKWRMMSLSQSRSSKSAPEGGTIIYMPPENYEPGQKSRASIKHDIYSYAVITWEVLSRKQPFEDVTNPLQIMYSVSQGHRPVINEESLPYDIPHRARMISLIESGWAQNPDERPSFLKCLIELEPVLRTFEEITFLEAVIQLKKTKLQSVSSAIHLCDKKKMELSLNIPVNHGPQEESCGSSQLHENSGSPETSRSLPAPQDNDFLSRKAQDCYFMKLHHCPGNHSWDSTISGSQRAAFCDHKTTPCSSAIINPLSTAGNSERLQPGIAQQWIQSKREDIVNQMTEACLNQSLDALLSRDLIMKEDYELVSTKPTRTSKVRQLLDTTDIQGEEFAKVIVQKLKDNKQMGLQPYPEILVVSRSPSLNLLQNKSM

[24] = target: Ribosomal protein S6 kinase alpha-2 (Homo sapiens) (UniProt Q15349); experiment: RPS6KA2 Invitrogen selectivity data (BI); details: Compound concentration 3.0 uM
Ribosomal protein S6 kinase alpha-2 (Homo sapiens), sequence (Q15349 whole entry): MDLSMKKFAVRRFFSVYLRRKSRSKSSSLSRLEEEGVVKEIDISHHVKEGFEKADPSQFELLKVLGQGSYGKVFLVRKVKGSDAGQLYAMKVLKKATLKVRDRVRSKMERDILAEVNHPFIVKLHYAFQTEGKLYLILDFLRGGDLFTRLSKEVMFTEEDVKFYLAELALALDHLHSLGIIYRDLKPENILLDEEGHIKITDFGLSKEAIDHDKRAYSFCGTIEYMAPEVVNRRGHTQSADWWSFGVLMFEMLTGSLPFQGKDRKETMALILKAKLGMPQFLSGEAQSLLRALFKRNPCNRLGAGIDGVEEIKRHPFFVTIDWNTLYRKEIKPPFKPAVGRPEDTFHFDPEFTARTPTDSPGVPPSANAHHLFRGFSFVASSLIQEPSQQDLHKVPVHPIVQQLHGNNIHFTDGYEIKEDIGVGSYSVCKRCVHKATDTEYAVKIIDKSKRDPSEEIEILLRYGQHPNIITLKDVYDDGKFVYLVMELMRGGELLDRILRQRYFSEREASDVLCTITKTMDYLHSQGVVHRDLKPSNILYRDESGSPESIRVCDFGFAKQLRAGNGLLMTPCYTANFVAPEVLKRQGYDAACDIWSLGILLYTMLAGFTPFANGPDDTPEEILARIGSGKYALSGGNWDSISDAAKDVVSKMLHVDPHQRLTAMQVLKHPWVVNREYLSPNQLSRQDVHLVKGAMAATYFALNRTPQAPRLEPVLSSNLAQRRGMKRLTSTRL

[25] = target: SRSF protein kinase 2 (Homo sapiens) (UniProt P78362); experiment: SRPK2 Invitrogen selectivity data (BI); details: Compound concentration 3.0 uM
SRSF protein kinase 2 (Homo sapiens), sequence (P78362 whole entry, looked up): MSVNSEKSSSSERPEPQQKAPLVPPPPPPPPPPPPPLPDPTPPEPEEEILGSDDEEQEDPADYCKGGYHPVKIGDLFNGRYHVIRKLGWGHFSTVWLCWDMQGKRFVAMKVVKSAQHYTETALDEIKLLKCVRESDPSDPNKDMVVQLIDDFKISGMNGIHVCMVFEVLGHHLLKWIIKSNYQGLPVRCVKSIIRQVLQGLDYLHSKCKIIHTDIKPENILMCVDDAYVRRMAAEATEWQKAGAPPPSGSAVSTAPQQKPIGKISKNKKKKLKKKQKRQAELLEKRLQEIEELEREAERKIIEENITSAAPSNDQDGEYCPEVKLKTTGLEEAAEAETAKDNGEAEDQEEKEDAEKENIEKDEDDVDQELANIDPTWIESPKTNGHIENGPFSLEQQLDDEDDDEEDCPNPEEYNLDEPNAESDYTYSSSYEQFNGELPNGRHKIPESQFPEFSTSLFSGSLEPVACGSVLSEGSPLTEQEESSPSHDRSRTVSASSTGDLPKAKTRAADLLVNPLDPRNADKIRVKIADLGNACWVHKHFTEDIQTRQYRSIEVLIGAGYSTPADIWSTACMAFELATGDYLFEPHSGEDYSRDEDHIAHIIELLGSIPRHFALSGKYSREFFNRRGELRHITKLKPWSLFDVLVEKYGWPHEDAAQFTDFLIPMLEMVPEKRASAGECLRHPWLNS

[26] = target: Tyrosine-protein kinase SYK (Homo sapiens) (UniProt P43405); experiment: SYK Invitrogen selectivity data (BI); details: Compound concentration 3.0 uM
[27] = target: Wee1-like protein kinase (Homo sapiens) (UniProt P30291); experiment: WEE1 Invitrogen selectivity data (BI); details: Compound concentration 3.0 uM
[28] = target: 3-phosphoinositide-dependent protein kinase 1 (Homo sapiens) (UniProt O15530); experiment: PDK1DIRECT Invitrogen selectivity data (BI); details: Compound concentration 3.0 uM

Measured: residual activity

5-hydroxytryptamine receptor 7 (Homo sapiens), sequence (P34969 whole entry): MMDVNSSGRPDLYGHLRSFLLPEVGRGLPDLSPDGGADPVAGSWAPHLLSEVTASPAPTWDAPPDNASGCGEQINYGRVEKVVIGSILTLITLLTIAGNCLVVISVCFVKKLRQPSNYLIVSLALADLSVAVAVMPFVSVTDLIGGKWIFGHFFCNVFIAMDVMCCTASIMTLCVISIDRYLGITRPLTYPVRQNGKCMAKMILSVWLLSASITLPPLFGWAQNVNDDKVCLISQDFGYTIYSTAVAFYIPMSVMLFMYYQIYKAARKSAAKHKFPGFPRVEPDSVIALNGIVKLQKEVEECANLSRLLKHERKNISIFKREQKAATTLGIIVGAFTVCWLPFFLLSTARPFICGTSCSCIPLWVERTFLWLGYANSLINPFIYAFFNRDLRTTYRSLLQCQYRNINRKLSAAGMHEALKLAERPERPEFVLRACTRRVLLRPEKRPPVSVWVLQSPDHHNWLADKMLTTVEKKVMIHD

CN(C)C(=O)Cn1cc(-c2nc([C@@](C)(c3ccc(-c4cnc(N)nc4)cc3)C3CC3)no2)cn1 [BI 665915]
inactive: [1] 104% | [2] 83% | [3] 118% | [4] 79% | [5] 101% | [6] 109% | [7] 91% | [8] 108% | [9] 109% | [10] 101% | [11] 95% | [12] 82% | [13] 98% | [14] 97% | [15] 103% | [16] 102% | [17] 82% | [18] 99% | [19] 93% | [20] 102% | [21] 97% | [22] 99.5% | [23] 91% | [24] 100% | [25] 98% | [26] 90% | [27] 100% | [28] 97%
